Reference: patent US20160090364A1, “PHTHALAZINONES AND ISOQUINOLINONES AS ROCK INHIBITORS” (BRISTOL-MYERS SQUIBB COMPANY, priority 2013, published 2016)
Values belong to the molecule of their own block, whether it stands above or below them.

Key:
[1] = test system: neointimal formation in rats; settings: model similar to balloon injury; cited from earlier work
[2] = test system: IL-1 beta-induced coronary stenosis; settings: porcine, long term treatment; cited from earlier work
[3] = molecular target: ROCK1 (Homo sapiens, UniProt Q13464); assay: ROCK assay (Caliper LabChip peptide phosphorylation), ROCK1; type: biochemical; settings: 5 μM ATP, 1.5 μM peptide substrate
Sequence of ROCK1 (Q13464 whole entry, species assumed): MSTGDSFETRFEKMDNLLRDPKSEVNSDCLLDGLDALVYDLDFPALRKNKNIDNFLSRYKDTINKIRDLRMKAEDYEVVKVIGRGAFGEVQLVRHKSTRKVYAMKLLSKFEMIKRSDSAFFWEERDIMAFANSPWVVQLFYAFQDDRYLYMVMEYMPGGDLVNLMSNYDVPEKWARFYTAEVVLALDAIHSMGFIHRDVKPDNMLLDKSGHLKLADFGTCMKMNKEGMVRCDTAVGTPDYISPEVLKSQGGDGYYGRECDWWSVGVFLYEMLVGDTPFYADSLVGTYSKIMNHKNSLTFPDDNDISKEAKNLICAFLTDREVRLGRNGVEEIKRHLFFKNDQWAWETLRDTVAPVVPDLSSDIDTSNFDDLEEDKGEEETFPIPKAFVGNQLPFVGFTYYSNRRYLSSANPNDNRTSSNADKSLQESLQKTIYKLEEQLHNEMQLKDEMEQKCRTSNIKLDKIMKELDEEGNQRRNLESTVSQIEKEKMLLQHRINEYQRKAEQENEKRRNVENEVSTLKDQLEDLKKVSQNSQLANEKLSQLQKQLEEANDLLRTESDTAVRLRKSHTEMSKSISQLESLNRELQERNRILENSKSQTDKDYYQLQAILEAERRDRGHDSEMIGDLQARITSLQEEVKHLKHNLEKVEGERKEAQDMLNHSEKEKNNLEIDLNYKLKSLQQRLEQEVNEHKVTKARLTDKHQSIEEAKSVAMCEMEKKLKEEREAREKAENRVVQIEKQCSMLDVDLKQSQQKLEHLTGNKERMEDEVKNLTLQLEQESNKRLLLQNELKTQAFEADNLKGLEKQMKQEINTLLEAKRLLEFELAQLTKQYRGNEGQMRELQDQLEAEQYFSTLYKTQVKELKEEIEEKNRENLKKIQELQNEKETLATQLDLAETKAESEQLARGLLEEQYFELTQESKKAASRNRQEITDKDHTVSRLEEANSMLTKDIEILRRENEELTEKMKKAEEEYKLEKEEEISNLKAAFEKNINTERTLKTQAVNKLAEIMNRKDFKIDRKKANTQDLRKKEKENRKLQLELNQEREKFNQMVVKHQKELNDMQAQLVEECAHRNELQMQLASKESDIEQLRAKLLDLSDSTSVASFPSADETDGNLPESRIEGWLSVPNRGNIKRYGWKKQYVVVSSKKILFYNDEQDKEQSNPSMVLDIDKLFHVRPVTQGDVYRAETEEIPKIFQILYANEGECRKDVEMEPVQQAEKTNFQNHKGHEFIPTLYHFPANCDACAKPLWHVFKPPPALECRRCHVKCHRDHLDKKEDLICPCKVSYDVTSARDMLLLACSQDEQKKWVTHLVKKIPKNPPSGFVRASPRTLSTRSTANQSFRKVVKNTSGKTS
Method: The effectiveness of compounds of the present invention as ROCK inhibitors can be determined in a 30 μL assay containing 20 mM HEPES, pH 7.5, 20 mM MgCl2, 0.015% Brij-35, 4 mM DTT, 5 μM ATP and 1.5 μM peptide substrate (FITC-AHA-[…]-OH). Compounds were dissolved in DMSO so that the final concentration of DMSO was <2%, and the reaction was initiated with Rho kinase variants. After incubation, the reaction was terminated by the addition of EDTA and the phosphorylated and non-phosphorylated peptides separated using a LabChip 3000 Reader (Caliper Life Sciences). […] Compounds were tested in dose-response format, and the inhibition of kinase activity was calculated at each concentration of compound. The inhibition data were fit using a curve-fitting program to determine the IC50; i.e., the concentration of compound required to inhibit 50% of kinase activity.”
Representative Examples were tested in the ROCK assay described above and found having ROCK inhibitory activity. A range of ROCK inhibitory activity (IC50 values) of ≦50 μM (50000 nM) was observed. Table A below lists the ROCK IC50 values measured for the following examples.

Compound: C[C@@H](N)[C@H]1CC[C@H](C(=O)Nc2ccncc2)CC1 [Example Y-27632, Y-27632]
neointimal formation [1]: inhibited neointimal formation

Compound: O=S(=O)(c1cccc2cnccc12)N1CCCNCC1 [fasudil]
coronary constrictive remodeling [2]: promote a regression of coronary constrictive remodeling | coronary stenosis [2]: progressively reduce coronary stenosis

IC50 [3]: ≥ 50 µM
Compound: O=C(Oc1ccc(-c2n[nH]c(=O)c3ccccc23)cc1)N1CCC(c2ccccc2)C1 (stereo not shown) [Example 69, 4-(4-oxo-3,4-dihydrophthalazin-1-yl)phenyl 3-phenylpyrrolidine-1-carboxylate]
